Results reported in patent publication US20260327224A1, “SUBSTITUTED PYRIDOTRIAZOLE COMPOUND, AND PREPARATION METHOD THEREFOR AND USE THEREOF” (ORIGIANT PHARMACEUTICAL CO., LTD., priority 2023, published 2026).

Experiments:
RIPK1 kinase = target: T1, RIPK1 kinase (Homo sapiens, UniProt Q13546); experiment: In vitro RIPK1 kinase assay (Eurofins Kinase Profiler); format: biochemical; settings: Inhibitory Activity Against RIPK1 Kinase
T1 construct: Eurofins
T1 sequence (Q13546 1-671): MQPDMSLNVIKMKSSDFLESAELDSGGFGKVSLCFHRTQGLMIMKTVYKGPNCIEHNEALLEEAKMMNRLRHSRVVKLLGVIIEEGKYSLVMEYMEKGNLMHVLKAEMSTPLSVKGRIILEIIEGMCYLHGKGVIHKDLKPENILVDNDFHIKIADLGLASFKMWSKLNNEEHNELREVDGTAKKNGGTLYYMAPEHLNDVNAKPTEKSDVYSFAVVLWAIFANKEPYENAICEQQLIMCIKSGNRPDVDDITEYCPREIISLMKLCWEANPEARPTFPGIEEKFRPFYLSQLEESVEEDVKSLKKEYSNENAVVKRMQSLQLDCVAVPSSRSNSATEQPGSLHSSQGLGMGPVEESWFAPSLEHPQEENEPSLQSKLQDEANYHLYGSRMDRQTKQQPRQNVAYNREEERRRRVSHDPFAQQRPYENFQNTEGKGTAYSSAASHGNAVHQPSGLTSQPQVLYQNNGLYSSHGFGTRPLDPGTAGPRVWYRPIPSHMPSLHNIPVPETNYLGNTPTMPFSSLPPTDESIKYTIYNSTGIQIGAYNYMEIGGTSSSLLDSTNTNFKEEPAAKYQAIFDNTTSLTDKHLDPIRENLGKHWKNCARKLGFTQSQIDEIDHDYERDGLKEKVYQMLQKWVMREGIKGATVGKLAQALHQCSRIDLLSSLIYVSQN
Procedure: In Vitro RIPK1 Kinase Assay:
This assay was completed using the Kinase Profiler service provided by Eurofins. The experimental method was as follows: The small molecule compound to be tested (0.001-10 M) and the protein kinase to be tested were incubated with a buffer containing a substrate, 10 mM magnesium acetate, and [γ-^33P-ATP]. The reaction was initiated by adding a Mg\ATPmix. After incubation at room temperature for a period of time, a 3% phosphate solution was added to the buffer to terminate the reaction. Subsequently, 10 μL of the reaction mixture was quantitatively pipetted and dropped onto P30 filter paper. The paper was washed three times with 75 mM phosphate solution and once with methanol. After drying, scintillation fluid was added for scinticounting. The inhibitory activity of the compound was expressed as the half-maximal inhibitory concentration (IC50). The IC50 values were derived by fitting the inhibition rates corresponding to the respective concentration gradients.

[1] = tested on: HT-29 cells (colon cancer cells); experiment: In vitro assay for protection of HT-29 cells from necroptosis (TNFα/Smac mimetic/Z-VAD-FMK, CCK-8); format: cell-based; settings: Homo sapiens, Protective Activity Against Necroptosis, TNFα/Smac mimetic/Z-VAD-FMK induced, 24 h
In short: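 Cells seeded overnight received compound in triplicate, then were induced with TNFα/Smac mimetic/Z-VAD-FMK for 24 h. Viability was read by CCK-8 absorbance at 495 nm after 1-3 h; protection rate normalized to solvent and medium-only controls, EC50 from fitted curve.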

| IC50 (RIPK1 kinase) [nM] | Compound | EC50 [1] [nM] |
| --- | --- | --- |
| 10 to 100 | C[C@H](NC(=O)c1cn(C)c2ccc(-c3ccn4nc(NC(=O)CN5CCOCC5(C)C)nc4c3)cc12)c1ccc(F)cc1 [Compound 32] | < 1 |
|  | C[C@H](NC(=O)c1cn(C)c2ccc(-c3ccn4nc(NC(=O)CN5CC(C)(C#N)C5)nc4c3)cc12)c1ccc(F)cc1 [Compound 29] | < 1 |
|  | C[C@H](NC(=O)c1cn(C)c2ccc(-c3ccn4nc(NC(=O)C5CC5F)nc4c3)cc12)C(C)(C)C (some centres unmarked) [Compound 92] | 100 to 1000 |
|  | COCC(=O)Nc1nc2cc(-c3ccc4c(c3)c(C(=O)N[C@@H](CF)c3ccc(F)cc3)cn4C)ccn2n1 [Compound 97] | < 1 |
|  | CC(C(=O)Nc1nn(C)c2ccc(-c3ccn4nc(NC(=O)c5cnn(C)c5)nc4c3)cc12)c1ccc(F)cc1 (centres unmarked) [Compound 181] | 1000 to 10000 |
|  | C[C@H](NC(=O)c1cn(C)c2ccc(-c3ccn4nc(NC(=O)C5CCOC5)nc4c3)cc12)c1ccc(F)cc1 (some centres unmarked) [Compound 106] | < 1 |
|  | Cn1cc(C(=O)N[C@H](c2ccc(F)cc2)C(F)F)c2cc(-c3ccn4nc(NC(=O)CC#N)nc4c3)ccc21 [Compound 164] | < 1 |
|  | C[C@H](NC(=O)c1cn(C)c2ccc(-c3ccn4nc(NC(=O)CN5CCC[C@H](O)C5)nc4c3)cc12)c1ccc(F)cc1 [Compound 7] | < 1 |
|  | C[C@H](NC(=O)c1cn(C)c2ccc(-c3ccn4nc(NC(=O)CN5CCN(C(=O)OC(C)(C)C)C[C@H]5C)nc4c3)cc12)c1ccc(F)cc1 [Compound 64] | < 1 |
|  | C[C@H](NC(=O)c1cn(C)c2ccc(-c3ccn4nc(NC(=O)CN5CCC6(CC5)OCCO6)nc4c3)cc12)c1ccc(F)cc1 [Compound 27] | < 1 |
|  | C[C@H](NC(=O)c1nn(C)c2ccc(-c3ccn4nc(NC(=O)c5cnn(C)c5)nc4c3)cc12)c1ccc(F)cc1 [Compound 191] | < 1 |
|  | CC(c1ccc(F)cc1)n1cnnc1-c1cn(C)c2ccc(-c3ccn4nc(NC(=O)C5CCOC5)nc4c3)cc12 (centres unmarked) [Compound 217] | 10 to 100 |
|  | CN(C)CC(=O)Nc1nc2cc(-c3ccc4c(c3)c(C(=O)N[C@H](c3ccc(F)cc3)C(F)F)cn4C)ccn2n1 [Compound 167] | < 1 |
|  | C[C@H](NC(=O)c1cn(C)c2ccc(-c3ccn4nc(NC(=O)CN5CCOCC5)nc4c3)cc12)c1ccco1 [Compound 88] | 1 to 10 |
|  | Cn1cc(C(=O)Nc2nc3cc(-c4ccc5c(c4)c(C(=O)N[C@@H](CF)c4cccc(F)c4)cn5C)ccn3n2)cn1 [Compound 155] | < 1 |
|  | C[C@H](NC(=O)c1cn(C)c2ccc(-c3ccn4nc(NC(=O)CN5CC[C@@H](O)C5)nc4c3)cc12)c1ccc(F)cc1 [Compound 12] | < 1 |
|  | CN(C)CC(=O)Nc1nc2cc(-c3ccc4c(c3)c(C(=O)N[C@@H](CF)c3ccc(F)cc3)cn4C)ccn2n1 [Compound 101] | < 1 |
|  | C[C@H](NC(=O)c1cn(C)c2ccc(-c3ccn4nc(NC(=O)N5CCOCC5)nc4c3)cc12)c1cccc(F)c1 [Compound 118] | < 1 |
|  | C[C@H](NC(=O)c1cn(C)c2ccc(-c3ccn4nc(NC(=O)Cn5cncn5)nc4c3)cc12)c1ccc(F)cc1 [Compound 57] | 10 to 100 |
|  | Cn1cc(C(=O)Nc2nc3cc(-c4ccc5c(c4)c(C4=NC(c6ccc(F)cc6)CO4)cn5C)ccn3n2)cn1 (centres unmarked) [Compound 213] | 10 to 100 |
|  | C[C@H](NC(=O)c1cn(C)c2ccc(-c3ccn4nc(NC(=O)c5cnn(C)c5)nc4c3)cc12)c1cccc(F)c1 [Compound 120] | < 1 |
|  | C[C@H](NC(=O)c1cn(C)c2ccc(-c3ccn4nc(NC(=O)CN5CCOCC5=O)nc4c3)cc12)c1ccc(F)cc1 [Compound 16] | 10 to 100 |
|  | Cn1cc(C(=O)N2CC(F)CC2c2ccc(F)cc2)c2cc(-c3ccn4nc(NC(=O)C5CC5)nc4c3)ccc21 (centres unmarked) [Compound 156] | < 1 |
|  | C[C@H](NC(=O)c1cn(C)c2ccc(-c3ccn4nc(NC(=O)CN(C)C)nc4c3)cc12)c1ccc(Cl)cc1 [Compound 78] | < 1 |
|  | C[C@H](NC(=O)c1cn(C)c2ccc(-c3ccn4nc(NC(=O)CN5CCC[C@@H](O)C5)nc4c3)cc12)c1ccc(F)cc1 [Compound 49] | 1 to 10 |
